For assay [1], the target named is T1, TauA (Escherichia coli, UniProt Q47537).
T1 construct: His tag with TEV site (pEHisTEV vector) (cleaved yes); made in house; host or cells: E. coli BL21 (DE3)
Description: Isothermal titration calorimetry, ligand binding to wild-type TauA. Set-up: species or system E. coli. Here is the method: The gene encoding for the mature TauA from E. coli (accession number: K12-Q47537) was cloned into the pEHisTEV vector. BL21 (DE3) cells transformed with pEHisTEVtauA plasmid were grown at 310 K. Isopropyl β-D-1-thiogalactopyranoside was added to a final concentration of 0.5 mM when the culture reached an OD600 of 0.6, and the growth continued at 298 K for 18 h. Cells were harvested by centrifugation (6000×g) and resuspended in PBS supplemented with 20 mM imidazole and 3 mM MgCl2. Cells were lysed by sonication (10 cycles; 10 s per cycle with 10 s interval on ice) followed by centrifugation at 30 000 g for 1 h. The supernatant was subjected to Ni-NTA affinity chromatography followed by overnight dialysis with TEV protease and size exclusion chromatography using a Superdex S-200 column equilibrated with 20 mM Tris (pH 7.5) and 150 mM NaCl. […] SDS–PAGE indicated high purity.
(§1) Binding of ligands to TauA and mutants was measured at 298 K using ITC (MicroCal iTC200 microcalorimeter, Malvern Instruments). The protein buffer was in 20 mM Tris (pH 7.5) and 150 mM NaCl (ITC buffer). Protein and ligands were diluted to desired concentrations using ITC buffer. The pH of protein and ligand was adjusted at 277 K. An amount of 200 µl of protein and 60 µl of ligand was added into the sample cell and injection syringe, respectively. Seventeen 2.4 µl injections were performed with a pre-injection of 0.5 µl, a 180 s interval and an injection speed of 0.5 µl/s. Control experiments were performed where ligand was injected into ITC buffer. The heat of interaction was obtained by subtracting control measurements (heat of dilution) from the experimental measurements. The baseline was generated and the concentration-normalized binding isotherm was integrated using the MicroCal Origin software (version 7). The first injection peak was deleted from the isotherm. The isotherm was fitted to a single-site binding model. Values of binding constant (Ka, M^−1), enthalpy change (ΔH, J/mol) and binding stoichiometry (n) were allowed to vary (unless mentioned specifically) during the fitting procedure. The dissociation constant (Kd, M) and entropy change (ΔS, J/mol/K) were derived from Ka, ΔH and n accordingly. The Kd value is derived from the absolute value of Ka (Kd = 1/Ka).
For orientation: In ITC the heat of successive injections is recorded.

Assay [2] deals with TauA Glu106Ala (Escherichia coli, UniProt Q47537, E106A). It is filed as binding, E. coli. The settings on record: ITC, Glu106Ala mutant. Here is the method: (§2) Alanine-substituted TauA mutants (Gln30Ala, Glu106Ala, Thr132Ala and Asp205Ala) were generated by PCR using the QuikChange Lightning Site-Directed Mutagenesis Kit (Agilent Technologies). Mutations were confirmed by DNA sequencing. Mutants were expressed and purified as for the wild-type TauA.
as §1, with “Values of binding constant (Ka, M^−1), enthalpy change (ΔH, J/mol) and binding stoichiometry (n) were allowed to vary (unless mentioned specifically) during the fitting procedure. The dissociation constant (Kd, M) and entropy change (ΔS, J/mol/K) were derived from Ka, ΔH and n accordingly. The Kd value is derived from the absolute value of Ka (Kd = 1/Ka).” left out

For assay [3], the target named is TauA Asp205Ala (Escherichia coli, UniProt Q47537, D205A). Description: biochemical. It is filed as binding, E. coli. The settings on record: Asp205Ala mutant. On the procedure: as §2, §1
Assay [4] deals with TauA Thr132Ala (Escherichia coli, UniProt Q47537, T132A). In words: biochemical. It is filed as binding, E. coli. The settings on record: Thr132Ala mutant. On the procedure:
as §2, §1

The target of assay [5] is TauA Gln30Ala (Escherichia coli, UniProt Q47537, Q30A). Description: biochemical. It is filed as binding, E. coli. The settings on record: ITC, Gln30Ala mutant. On the procedure: as §2, §1
Where [6] appears, read: ITC, 298 K, 20 mM Tris pH 7.5, 150 mM NaCl, read-out: Kd.
Setting [7] is: stoichiometry fixed to 0.8 during data fitting.
The mark [8] stands for this setting: ITC, read-out: Kd (apparent affinity).

Structures are written as SMILES. “Also recorded” adds a separate entry of the source. Read-outs that look alike come from different tables or passages of the source. Marks after values point to notes of the source that are not given here.

Chain of TauA Gln30Ala (Q47537 23-320 Q30A): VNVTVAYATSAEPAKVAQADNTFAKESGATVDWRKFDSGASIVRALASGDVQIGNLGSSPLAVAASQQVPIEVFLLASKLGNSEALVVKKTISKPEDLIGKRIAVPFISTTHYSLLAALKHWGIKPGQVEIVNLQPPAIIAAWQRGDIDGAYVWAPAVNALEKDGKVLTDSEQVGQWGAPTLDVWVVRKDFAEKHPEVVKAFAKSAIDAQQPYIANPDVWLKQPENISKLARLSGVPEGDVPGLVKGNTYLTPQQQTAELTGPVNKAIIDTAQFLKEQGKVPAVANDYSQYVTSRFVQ
Chain of TauA Asp205Ala (Q47537 23-320 D205A): as the sequence (Q47537 23-320 Q30A) above, with A8Q, D183A counted along it
Chain of TauA Thr132Ala (Q47537 23-320 T132A): as the sequence (Q47537 23-320 Q30A) above, with A8Q, T110A counted along it
T1 sequence (Q47537 23-320): as the sequence (Q47537 23-320 Q30A) above, with A8Q counted along it
Chain of TauA Glu106Ala (Q47537 23-320 E106A): as the sequence (Q47537 23-320 Q30A) above, with A8Q, E84A counted along it

Regarding `NCCS(=O)(=O)O` [taurine, 2-aminoethanesulfonic acid], in assay [1] (ITC), the “heat of binding to TauA (exothermic/endothermic)” value (“heat … (exothermic/endothermic)” for short) is reported as “exothermic”. Besides, the ΔH was −61.04 (±0.08%) kJ/mol in assay [1] (ITC, 298 K); −34.83 (±2%) kJ/mol in assay [3] (ITC); −28.76 (±8%) kJ/mol in assay [4] (ITC); −17.87 (±8%) kJ/mol in assay [5]. Also, the Kd in assay [1] (setting [6]) was 0.0016 µM; in assay [3] (Kd, ITC, 298 K), 22.9 µM; in assay [3] (affinity, ITC) it was 22.9 µM; in assay [4] (Kd, ITC, 298 K), 20.6 µM; in assay [4] (affinity, ITC) it was 20.6 µM; in assay [5] (Kd, 298 K) it was 3.48 µM. In assay [5] (affinity), this compound registered a Kd of 3.5 µM. Further, the Stoichiometry is reported as 0.768(±0.38%) in assay [1] (ITC, fitted n); 0.8 ^* in assay [3] (setting [7]); 0.8 ^* in assay [4] (setting [7]); 0.83(±6%) in assay [5] (fitted n). The taurine binding affinity result in assay [2] is on record as “detrimental to taurine binding; also recorded: No binding affinity could be measured”. For the same compound, the ΔS in assay [3] (ITC) is −2.34 J/mol/K; in assay [4] (ITC), −0.54 J/mol/K; in assay [5], 3.72 J/mol/K.
As to `NCCP(=O)(O)O` [2-AEP, 2-Aminoethylphosphonic acid], in assay [1] (ITC), the “heat … (exothermic/endothermic)” value is reported as “endothermic”. Further, in assay [1] (ITC, 298 K), the ΔH is listed as 0.016 (±0.03%) kJ/mol and the ΔS stood at 2.33 J/mol/K. Also, in assay [1] (Kd (apparent affinity), ITC), the Kd worked out at 649 µM. This compound also gave a Kd in assay [1] (Kd, ITC, 298 K, 20 mM Tris pH 7.5, 150 mM NaCl) of 649 µM. Moreover, the Stoichiometry in assay [1] (setting [7]) is 0.8 ^*.
Take `O=S(=O)(O)CCN1CCOCC1` [MES, 2-(N-morpholino)ethanesulfonate]: in assay [1] (ITC), the “heat … (exothermic/endothermic)” value is “endothermic”. Moreover, in assay [1] (ITC, 298 K), the ΔH is 4.74 (±0.8%) kJ/mol and the ΔS is 2.45 J/mol/K. In addition, in assay [1] (setting [6]), the Kd stood at 2.85 µM. Besides, the Stoichiometry in assay [1] (ITC, fitted n) is 0.868(±0.5%). For the same compound, the Kd in assay [1] (setting [8]) worked out at 2.8 µM.
For `NC(=O)CNCCS(=O)(=O)O` [ACES, N-(2-acetamido)-2-aminoethanesulfonic acid], the “heat … (exothermic/endothermic)” value in assay [1] (ITC) is “exothermic”. For the same compound, in assay [1] (ITC, 298 K), the ΔH is listed as −1.44 (±3.3%) kJ/mol and the ΔS amounted to 1.87 J/mol/K. The Kd in assay [1] (setting [6]) is 7.46 µM. In addition, the Stoichiometry in assay [1] (ITC, fitted n) is 0.79(±2.4%). In assay [1] (setting [8]), the Kd stood at 7.4 µM.

Source of the values: paper PMC6906117, “Desolvation of the substrate-binding protein TauA dictates ligand specificity for the alkanesulfonate ABC importer TauABC” (Biochemical Journal, 2019).
